The source of these data is patent US20240294478A1, “ANTI-CANCER COMPOUNDS AND METHODS OF USE” (YALE UNIVERSITY, priority 2021, published 2024).

The structures appear in SMILES notation.

The test system of assay [1] is LN229 MGMT+/−, MMR+/− cells. Nature of the assay: Micronuclei analysis. It is filed as cell-based, human. Particulars: 20 μM, 48 h. The source says: FIGS. 8A-8K. (FIG. 8A) Change in percent cells with 1 micronuclei from baseline (DMSO control) after treatment as in FIGS. 5A and 5C. Columns, mean; error bars, SD; n>15 technical replicates; **** p<0.0001; ns, not significant. (FIG. 8B) Short-term viability assay curves for KL-50 in PD20 cells, deficient in FANCD2 (FANCD2−/−) or complemented with FANCD2 (+FANCD2). (FIG. 8C) Short-term viability assay curves for KL-50 in PEO4 (BRCA2+) and PEO1 (BRCA2−/−) cells pre-treated with 0.01% DMSO control or 10 μM O^6BG (+O^6BG) for 1 h prior to KL-50 addition. (FIG. 8D) Short-term viability assay curves for KL-50 in DLD1 BRCA2+/− and BRCA2−/−cells pre-treated with 0.01% DMSO control or 10 μM O^6BG (+O^6BG) for 1 h prior to KL-50 addition. For FIGS. 8B-8D, points, mean; error bars, SD; n=3 technical replicates. […] (FIG. 8E) Validation of micronuclei identification using olaparib as positive control. […] The % FANCD2 ubiquitination (% FANCD2 Ub) is quantified as the background-corrected integrated band intensity of the upper band divided by the sum of the background-corrected integrated band intensities of the upper and lower bands. […]
Micronuclei Analysis. An automated image analysis pipeline was developed by YCMD using InCell Analyzer software to quantify micronuclei formation. […]

In assay [2] the test system is DNA repair foci in LN229 MGMT+/−, MMR+/− cells. Nature of the assay: Immunofluorescence foci assays (γH2AX, 53BP1, pRPA). It is filed as cell-based, human. Particulars: 20 μM, 2 to 48 h. As to the method: FIGS. 5A-5K: KL-50 activates DNA damage response pathways and cycle arrest in MGMT-cells, independent of MMR, and induces sensitivity in cells deficient in ICL or HR repair. […] Columns, mean; error bars, SD; n 5 technical replicates. FIGS. 5D-5K: KL-50 induces activation of the ATR-CHK1 and ATM-CHK2 signaling axes and delayed DNA repair foci formation in MGMT-deficient cells, independent of MMR status. […] Treatment with 1 μM doxorubicin for 24 h (Doxo) served as a positive control for p-CHK1 activation. […] Points, mean % cells with >10 foci; error bars, SD; n >5 technical replicates. […] Points, % cells with 10 foci, n>250 cells per condition.
Immunofluorescence Foci Assays. High-throughput immunofluorescence foci assays were performed at the Yale Center for Molecular Discovery (YCMD). Cells were seeded at 2000 cells/well in black polystyrene flat bottom 384-well plates (Greiner Bio-One) and allowed to adhere overnight. Compound addition was performed utilizing a Labcyte Echo 550 liquid handler (Beckman Coulter), with 6 replicates per test condition and 12 replicates per control condition. Following drug incubation, cells were fixed and stained for phospho-SER139-H2AX (yH2AX), 53BP1, or phospho-SER33-RPA2 (pRPA) as follows. […]

In the case of `NC(=O)c1ncn2c(=O)n(CCF)nnc12` [KL-50], the micronuclei formation entry in assay [1] (greatest in MGMT−/MMR− cells) is given as “significant increase in micronuclei”. For the same compound, in assay [2], the “γH2AX, 53BP1, pRPA foci formation” value is “induced a maximal foci response at 48 h, specifically in MGMT-cells and irrespective of MMR status”.

For the compound `Cn1nnc2c(C(N)=O)ncn2c1=O` [TMZ, 4-methyl-5-oxo-2,3,4,6,8-pentazabicyclo[4.3.0]nona-2,7,9-triene-9-carboxamide, reference compound], the “foci induction or micronuclei formation in MGMT−/MMR− cells” value in assay [1] is reported as “not observed”. In addition, the “γH2AX, 53BP1, pRPA foci formation” value in assay [2] was “induced a comparable response in MGMT-cells, but this was abolished in the absence of functional MMR”.
